Laboratory results taken from patent US12503438B2, “Compounds for the treatment of kinase-dependent disorders” (Exelixis, Inc., priority 2019, dated 2025).

Each compound was assayed against KDR (Homo sapiens, UniProt P35968) (assay: KDR autophosphorylation ELISA in HUVEC cells). Conditions: cellular activity, VEGF165-stimulated, phospho-KDR ELISA.
Type: cell-based
Design: endogenous in cells; host or cells: HUVEC (Lonza #C2519A)
In short: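 HUVEC, 24 h serum-free starvation; cpd 8-pt dilution, 0.3% DMSO final, 1 h; VEGF165 100 ng/mL, 5 min; cold lysis; phospho-KDR ELISA; IC50, 4PL.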

Chain of KDR (P35968 20-1356): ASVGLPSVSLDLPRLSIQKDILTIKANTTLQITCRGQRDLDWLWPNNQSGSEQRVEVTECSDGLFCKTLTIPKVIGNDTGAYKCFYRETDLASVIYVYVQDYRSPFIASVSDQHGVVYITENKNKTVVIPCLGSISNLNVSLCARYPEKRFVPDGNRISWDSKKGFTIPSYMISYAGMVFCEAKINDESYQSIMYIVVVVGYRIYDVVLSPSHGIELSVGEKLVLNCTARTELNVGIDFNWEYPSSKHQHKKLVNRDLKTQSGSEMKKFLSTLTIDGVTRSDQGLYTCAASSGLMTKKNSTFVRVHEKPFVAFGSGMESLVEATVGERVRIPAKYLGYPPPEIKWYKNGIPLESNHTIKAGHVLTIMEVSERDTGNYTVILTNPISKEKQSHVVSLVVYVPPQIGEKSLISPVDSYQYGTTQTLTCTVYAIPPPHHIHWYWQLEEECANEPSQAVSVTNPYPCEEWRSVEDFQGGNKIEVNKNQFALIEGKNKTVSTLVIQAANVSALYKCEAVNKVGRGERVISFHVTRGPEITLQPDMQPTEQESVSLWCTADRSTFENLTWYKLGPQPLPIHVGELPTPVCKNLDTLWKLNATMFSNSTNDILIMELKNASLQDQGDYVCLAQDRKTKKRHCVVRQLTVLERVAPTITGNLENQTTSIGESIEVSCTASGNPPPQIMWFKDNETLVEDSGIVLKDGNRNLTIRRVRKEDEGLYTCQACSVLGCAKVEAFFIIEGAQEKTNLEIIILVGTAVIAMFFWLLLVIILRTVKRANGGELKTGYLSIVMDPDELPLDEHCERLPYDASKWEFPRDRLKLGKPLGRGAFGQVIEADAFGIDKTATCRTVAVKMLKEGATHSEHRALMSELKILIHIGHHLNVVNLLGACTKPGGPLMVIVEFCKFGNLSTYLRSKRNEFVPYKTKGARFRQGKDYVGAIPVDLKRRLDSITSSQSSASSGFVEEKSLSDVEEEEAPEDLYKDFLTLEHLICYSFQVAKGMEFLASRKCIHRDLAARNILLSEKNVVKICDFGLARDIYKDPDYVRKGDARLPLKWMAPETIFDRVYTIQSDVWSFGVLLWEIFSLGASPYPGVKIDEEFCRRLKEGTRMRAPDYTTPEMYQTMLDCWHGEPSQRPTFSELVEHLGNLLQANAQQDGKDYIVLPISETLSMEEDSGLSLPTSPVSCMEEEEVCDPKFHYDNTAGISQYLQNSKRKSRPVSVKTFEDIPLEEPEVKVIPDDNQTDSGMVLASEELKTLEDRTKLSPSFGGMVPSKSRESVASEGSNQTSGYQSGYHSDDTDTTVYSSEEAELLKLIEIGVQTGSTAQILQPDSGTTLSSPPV

IC50 [nM]	Compound
≤ 10	O=C(Nc1ccc(F)cc1)C1(C(=O)Nc2ccc(Oc3ccnc4cc(-c5cccnc5)ccc34)c(F)c2)CC1 [Compound 113, 1-N-(4-Fluorophenyl)-1-N′-[3-fluoro-4-(7-pyridin-3-ylquinolin-4-yl)oxyphenyl]cyclopropane-1,1-dicarboxamide]
≤ 10	O=C(Nc1ccc(F)cc1)C1(C(=O)Nc2ccc(Oc3ccnc4cc(-c5ccncn5)ccc34)cc2)CC1 [Compound 114, 1-N′-(4-Fluorophenyl)-1-N-[4-(7-pyrimidin-4-ylquinolin-4-yl)oxyphenyl]cyclopropane-1,1-dicarboxamide]
≤ 10	O=C(Nc1ccc(F)cc1)C1(C(=O)Nc2cc(F)c(Oc3ccnc4cc(-c5cccnc5)ccc34)cc2F)CC1 [Compound 115, 1-N′-[2,5-Difluoro-4-(7-pyridin-3-ylquinolin-4-yl)oxyphenyl]-1-N-(4-fluorophenyl)cyclopropane-1,1-dicarboxamide]
≤ 10	O=C(Nc1ccc(F)cc1)C1(C(=O)Nc2ccc(Oc3ccnc4cc(-c5cncs5)ccc34)cc2)CC1 [Compound 116, 1-N′-(4-Fluorophenyl)-1-N-[4-[7-(1,3-thiazol-5-yl)quinolin-4-yl]oxyphenyl]cyclopropane-1,1-dicarboxamide]
≤ 10	Cn1ccc(-c2ccc3c(Oc4ccc(NC(=O)C5(C(=O)Nc6ccc(F)cc6)CC5)cc4)ccnc3c2)cc1=O [Compound 117, 1-N′-(4-Fluorophenyl)-1-N-[4-[7-(1-methyl-2-oxopyridin-4-yl)quinolin-4-yl]oxyphenyl]cyclopropane-1,1-dicarboxamide]
10 to 100	O=C(Nc1ccc(F)cc1)C1(C(=O)Nc2cc(F)c(Oc3ccnc4cc(-c5cnn(C(F)F)c5)ccc34)cc2F)CC1 [Compound 118, 1-N′-[4-[7-[1-(Difluoromethyl)pyrazol-4-yl]quinolin-4-yl]oxy-2,5-difluorophenyl]-1-N-(4-fluorophenyl)cyclopropane-1,1-dicarboxamide]
≤ 10	Cn1cc(-c2ccc3c(Oc4ccc(NC(=O)C5(C(=O)Nc6ccc(F)cc6)CC5)cc4)ccnc3c2)ccc1=O [Compound 119, 1-N′-(4-Fluorophenyl)-1-N-[4-[7-(1-methyl-6-oxopyridin-3-yl)quinolin-4-yl]oxyphenyl]cyclopropane-1,1-dicarboxamide]
10 to 100	Cc1cc2c(Oc3cc(F)c(NC(=O)C4(C(=O)Nc5ccc(F)cc5)CC4)cc3F)ccnc2cc1-c1ncc[nH]1 [Compound 121, 1-N′-[2,5-Difluoro-4-[7-(1H-imidazol-2-yl)-6-methylquinolin-4-yl]oxyphenyl]-1-N-(4-fluorophenyl)cyclopropane-1,1-dicarboxamide]
10 to 100	Cc1cc2c(Oc3ccc(NC(=O)C4(C(=O)Nc5ccc(F)cc5)CC4)cc3F)ccnc2cc1-c1ncc[nH]1 [Compound 122, 1-N′-[3-Fluoro-4-[7-(1H-imidazol-2-yl)-6-methylquinolin-4-yl]oxyphenyl]-1-N-(4-fluorophenyl)cyclopropane-1,1-dicarboxamide]
≤ 10	O=C(Nc1ccc(F)cc1)C1(C(=O)Nc2ccc(Oc3ccnc4cc(-c5cnn(C(F)F)c5)ccc34)c(F)c2)CC1 [Compound 123, 1-N′-[4-[7-[1-(Difluoromethyl)pyrazol-4-yl]quinolin-4-yl]oxy-3-fluorophenyl]-1-N-(4-fluorophenyl)cyclopropane-1,1-dicarboxamide]
10 to 100	O=C(Nc1ccc(F)cc1)C1(C(=O)Nc2ccc(Oc3ccnc4cc(-c5cc6n(n5)CCC6)ccc34)cc2)CC1 [Compound 124, 1-N-[4-[7-(5,6-Dihydro-4H-pyrrolo[1,2-b]pyrazol-2-yl)quinolin-4-yl]oxyphenyl]-1-N′-(4-fluorophenyl)cyclopropane-1,1-dicarboxamide]
